≈ marks a conversion by molar mass, not a printed value. Where two headings read alike, the source gives them in different places.
Columns and labels:
[1] = system: A549; assay: MTS cell viability, A549 lung cancer cells; type: cell-based; settings: Homo sapiens, read-out: IC50 (µg/mL) values
Procedure: (§1) A549, U87, MDA-MB-231, and CT-26 cells were purchased from American Type Culture Collection (ATCC) (Manassas, VA, USA). The cells, A549 and CT-26 were cultured in RPMI-1640 supplemented with 1% Pen/Strep (100 U mL^–1, Gibco, Carlsbad, CA) and 10% FBS (Atlanta Biologicals, Flowery Branch, GA). While MDA-MB-231 and U87 cells were cultured in DMEM medium supplemented with 1% Pen/Strip and 10% FBS. Cells were incubated at 37 °C and 5% CO2 in humidified incubator (Sanyo Scientific Autoflow, Hudson, MA).
(§2) A549, U87, MDA-MB-231, and CT-26 cancer cells were plated in 96-well plates at a density of 2X10^4 cells/well in 100 μL of medium before the addition of different concentrations of the plant extracts. Untreated control group was incubated with^-100 µL/well of fresh media and^-methanol. After 24 h., the medium was aspirated and replaced by-100 µL of fresh media, and 20 µL of MTS^-reagent in each well (CellTiter 96^-Aqueous One^-Solution cell^-proliferation assay, Promega^-Corporation, Madison,^-WI,^-USA). The plates were then incubated at 37 °C with 5% CO2 for 2 h. The absorbance was measured at 490 nm using a Spectramax plus 384 Microplate reader (Molecular Devices, Sunnyvale, CA, USA). Relative cell viability values were expressed as the percentage of the absorbance from the treated wells compared to the control wells (untreated), given that the control wells viability was set to 100%. The cells were examined under a cell imaging system (EVOS FL Digital Microscope) using a 20X objective as well before getting rid of the plates. The half-maximal inhibitory concentrations (IC50) of pure compounds for four […] cancer cell lines were calculated.
(§3) Figure 3 The anticancer activities of the three pure compounds (1–3) isolated from Ziziphus spina-christi using the MTS assay on glioblastoma, breast cancer, lung, and colorectal carcinoma cells. Cancer cells lines A549 (a) U87 (b), MDA-MB-231 (c) and CT-26 […] were tested. […] Cells were stained with MTS reagents and cell survival was quantitated using the spectramax plate reader. […]

[2] = system: CT-26; assay: MTS cell viability, CT-26 colorectal carcinoma cells; type: cell-based; settings: read-out: IC50 (µg/mL) values
Procedure: as §1, §2, §3

[3] = system: MDA-MB-231; assay: MTS cell viability, MDA-MB-231 breast cancer cells; type: cell-based; settings: Homo sapiens, read-out: IC50 (µg/mL) values
Procedure: as §1, §2, §3

[4] = system: U87; assay: MTS cell viability, U87 glioblastoma cells; type: cell-based; settings: Homo sapiens, U-87 MG, 24 h, read-out: IC50 (µg/mL) values
Procedure: as §1, §2, §3

[5] = system: breast cancer cell line MDA-MB-231; set-up: method as in PMID 19960417; settings: 50 μmol/l, MDA-MB-231 in vitro; cited from earlier work
[6] = system: sarcoma S180; set-up: method as in PMID 19960417; settings: 50 μmol/kg, mice implanted with sarcoma S180; cited from earlier work
[7] = system: EBV-EA; settings: cited from earlier work
[8] = system: A549 cells; set-up: method as in PMID 26922140; settings: concentration-dependent; cited from earlier work

## CC(C)=CC1CC(C)(O)C2C3CCC4C5(C)CCC(OC6OCC(O)C(OC7OC(CO)C(OC(=O)C=Cc8ccc(O)cc8)C(O)C7O)C6OC6OC(C)C(O)C(O)C6O)C(C)(C)C5CCC4(C)C34COC2(C4)O1 (stereo not drawn) [Compound 1, Christinin E]
[1]; A549, MTS, 24 h
  IC50: 9.53 ± 0.01 µg/mL (≈ 9 µM)
[2]; CT26, CT-26, MTS, 24 h
  IC50: 0.7 ± 0.049 µg/mL (≈ 0.661 µM)
[3]; MDA-MB-231, MTS, 24 h
  IC50: 6.02 ± 1.5 µg/mL (≈ 5.68 µM)
[4]; U87, MTS
  IC50: 5.7 ± 1.63 µg/mL (≈ 5.38 µM)

## CC(C)=CC1CC(C)(O)C2C3CCC4C5(C)CCC(OC6OCC(O)C(OC7OC(CO)C(OC(=O)C=Cc8ccc(OC(=O)C(=O)O)cc8)C(O)C7O)C6OC6OC(C)C(O)C(O)C6O)C(C)(C)C5CCC4(C)C34COC2(C4)O1 (stereo not drawn) [Compound 2, Christinin F]
[1]; A549, MTS, 24 h
  IC50: 4.89 ± 0.93 µg/mL (≈ 4.32 µM)
[2]; CT26, CT-26, MTS, 24 h
  IC50: 7.21 ± 0.35 µg/mL (≈ 6.37 µM)
[3]; MDA-MB-231, MTS, 24 h
  IC50: 5.81 ± 0.087 µg/mL (≈ 5.14 µM)
[4]; U87, MTS
  IC50: 4.16 ± 0.87 µg/mL (≈ 3.68 µM)

## CC(C)=CC1CC(C)(O)C2C3CCC4C5(C)CCC(OC6OCC(O)C(OC7OC(CO)C(O)C(O)C7O)C6OC6OC(C)C(O)C(O)C6O)C(C)(C)C5CCC4(C)C34COC2(C4)O1 (stereo not drawn) [Compound 3, christinin A]
[1]; A549, 24 h
  IC50: 5.67 ± 1.05 µg/mL (≈ 6.21 µM)
[2]; CT26, 24 h
  IC50: 5.47 ± 1.3 µg/mL (≈ 5.99 µM)
[3]; MDA-MB-231, 24 h
  IC50: 9.3 ± 0.19 µg/mL (≈ 10.2 µM)
[4]
  IC50: 7.28 ± 0.56 µg/mL (≈ 7.97 µM)

## CC(C)=CC1C[C@](C)(O)[C@@H]2[C@@H]3CC[C@@H]4[C@@]5(C)CC[C@H](O[C@@H]6OC[C@H](O)[C@H](O[C@@H]7O[C@H](CO)[C@@H](O)[C@H](O)[C@H]7O)[C@H]6O[C@@H]6O[C@@H](CO)[C@H](O)[C@H]6O)C(C)(C)[C@@H]5CC[C@@]4(C)[C@]34CO[C@@]2(C4)O1 (stereo partly drawn) [bacopaside VII]
[5]
  adhesion, migration, and matrigel invasion (in words): markedly reduced
[6]
  inhibition: 84.13%

## C=C(C)[C@@H]1CC[C@]2(C)[C@H](CC[C@@H]3[C@@H]([C@@](C)(O)CCC=C(C)C)CC[C@]32C)[C@@]1(C)CCC(=O)O [dammarenolic acid]
[7]
  IC50: 226 mol ratio/32 pmol TPA

## bacopaside É
[5]
  adhesion, migration, and matrigel invasion (in words): markedly reduced
[6]
  inhibition: 90.52%

## gypenoside Jh1
[8]
  cytotoxicity (in words): strong cytotoxicity

Reference: paper PMC10667233, “New cytotoxic dammarane type saponins from Ziziphus spina-christi” (Scientific Reports, 2023)
